# Values quoted from earlier work, collected in patent US20100303877A1, “Controlled Release Hydrogel Films” (Board of Regents, The University of Texas System, priority 2009, published 2010).
# Tested on: mammalian cells
smiles,measurement,value
"[Ag+] [Ag^+, silver ions]",silver ion concentration above which cytotoxicity occurs,> 10 mg per liter
